This note sets out measurements from the supplement of paper PMC3974653.

Counter-ions that a name gives are not always drawn.

The test deals with MTT (mouse pheochromocytoma). Description: IC50 of cell viability (ATP content). Conditions: (24 or 48 h). The method in brief: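 Cells of the MTT mouse pheochromocytoma line, 5 µl per well at 200,000 cells/ml, were grown overnight at 37°C, 5% CO2 in white 1536-well plates with DMEM, 5% FBS and 1% horse serum. Pintool transfer then delivered 23 nl of library compound in DMSO, giving 8 final concentrations from 0.5 nM to 46 µM, for an exposure of 24 or 48 hrs. Luminescence from CellTiter-Glo was read after 15 minutes and referenced to positive-control wells (100%) and DMSO wells (0%). IC50 was calculated with a four-parameter logistic fit.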
In the case of `O=C(NC(=O)c1c(F)cccc1F)Nc1ccc(Cl)c(Oc2ncc(C(F)(F)F)cc2Cl)c1` [Fluazuron], the “IC50 of cell viability” value was > 46 µM.

Regarding `NC/1=N/C(=O)N/C=C1F` [Flucytosine], the “IC50 of cell viability” value is > 46 µM.

Take `CC(=O)[C@@]1(O)CC[C@@H]2[C@@H]3CCC/4=C/C(=O)CC[C@]4(C)[C@]3(F)[C@@H](O)C[C@]12C` [Flugestone]: the “IC50 of cell viability” value was > 46 µM.

With `O=C1c2ccccc2C(=O)C1c1ccc(F)cc1` [Fluindiona], the “IC50 of cell viability” value is > 46 µM.

Turning to `C[C@@H]1C[C@H]2[C@@H]3C[C@H](F)C/4=C/C(=O)/C=C\[C@]4(C)[C@@]3(F)[C@@H](O)C[C@]2(C)[C@@]1(O)C(=O)COC(=O)C(C)(C)C` [Flumethasone pivalate], the “IC50 of cell viability” value was > 46 µM.

`C[C@@H]1C[C@@H]2[C@@H]3C[C@@H](F)\C4=C\C(=O)\C=C/[C@]4(C)[C@@]3(F)[C@H](O)C[C@@]2(C)[C@@]1(O)C(=O)CO` [Flumethasone]: the “IC50 of cell viability” value is > 46 µM.

Take `CC1(C)O[C@@H]2C[C@@H]3[C@@H]4C[C@@H](F)\C5=C\C(=O)\C=C/[C@]5(C)[C@H]4[C@H](O)C[C@@]3(C)[C@]2(O1)C(=O)CO` [Flunisolide]: the “IC50 of cell viability” value was > 46 µM.

As for `CNC[C@H](O)[C@H](O)[C@H](O)[C@H](O)CO.Cc1c(Nc2ncccc2C(=O)O)cccc1C(F)(F)F` [Flunixin meglumine], the “IC50 of cell viability” value is > 46 µM.

On to `CC1(C)O[C@@H]2C[C@H]3[C@@H]4C[C@H](F)C/5=C/C(=O)/C=C\[C@]5(C)[C@@]4(F)[C@@H](O)C[C@]3(C)[C@@]2(O1)C(=O)CO` [Fluocinolone acetonide], for which the “IC50 of cell viability” value was > 46 µM.

`O=C1OC2(c3ccc(O)cc3Oc3cc(O)ccc32)c2ccccc21` [Fluorescein (free acid)]: the “IC50 of cell viability” value was > 46 µM.

For `O=C(O)c1ccccc1-c1c2ccc(=O)cc-2oc2cc(O)ccc12` [Fluorescein sodium], the “IC50 of cell viability” value is > 46 µM.

In the case of `C[C@@H]\1C[C@@H]2[C@H]3CC[C@](O)(C(C)=O)[C@]3(C)C[C@H](O)[C@]2(F)[C@@]4(C)\C=C/C(=O)/C=C14` [Fluorometholone], the “IC50 of cell viability” value is > 46 µM.

Turning to `CC1(O)CCC2C3CCC4=CC(=O)CCC4(C)C3(F)C(O)CC21C` (stereo not drawn) [Fluoxymesterone], the “IC50 of cell viability” value was > 46 µM.

In the case of `CN1CCN(C2=Nc3cc(F)ccc3Cc3ccccc32)CC1` [Fluperlapine], the “IC50 of cell viability” value is > 46 µM.

As for `CCOC(=O)Nc1ccc(NCc2ccc(F)cc2)nc1N` [Flupirtine maleate salt], the “IC50 of cell viability” value was > 46 µM.

Turning to `CCOC(=O)Nc1ccc(NCc2ccc(F)cc2)nc1N.O=C(O)/C=C\C(=O)O` [Flupirtine maleate], the “IC50 of cell viability” value is > 46 µM.

In the case of `C=C1C[C@@H]2[C@H]3CCC4=CC(=O)C=C[C@]4(C)[C@@]3(F)[C@@H](O)C[C@]2(C)[C@]1(O)C(=O)COC(C)=O` [Fluprednidene acetate], the “IC50 of cell viability” value is > 46 µM.

Turning to `C[C@]12C=CC(=O)C=C1[C@@H](F)C[C@@H]1[C@@H]2[C@@H](O)C[C@@]2(C)[C@H]1CC[C@]2(O)C(=O)CO` [Fluprednisolone], the “IC50 of cell viability” value was > 46 µM.

`O=C(O)CCC/C=C\C[C@@H]1[C@@H](/C=C/[C@@H](O)COc2cccc(C(F)(F)F)c2)[C@H](O)C[C@@H]1O` [Fluprostenol sodium]: the “IC50 of cell viability” value was > 46 µM.

On to `CC1(C)O[C@@H]2C[C@@H]3[C@@H]4C[C@@H](F)\C5=C\C(=O)CC[C@]5(C)[C@H]4[C@H](O)C[C@@]3(C)[C@]2(O1)C(=O)CO` [Flurandrenolide], for which the “IC50 of cell viability” value is > 46 µM.

With `CC(=O)O[C@H](C)OC(=O)[C@@H](C)c1ccc(-c2ccccc2)c(F)c1` [Flurbiprofen Axetil], the “IC50 of cell viability” value was > 46 µM.

On to `C[C@@H](C(=O)O)c1ccc(-c2ccccc2)c(F)c1` [Flurbiprofen], for which the “IC50 of cell viability” value was > 46 µM.

As to `NP(N)(=O)NC(=O)c1ccc(F)cc1` [Flurofamide], the “IC50 of cell viability” value is > 46 µM.

Consider `CC(=O)O[C@]1(C(C)=O)CCC2C3CCC4=CC(=O)CCC4(C)C3(F)C(O)CC21C` (stereo partly drawn) [Flurogestone acetate], for which the “IC50 of cell viability” value is > 46 µM.

In the case of `CC(C)C(=O)Nc1ccc([N+](=O)[O-])c(C(F)(F)F)c1` [Flutamide], the “IC50 of cell viability” value is > 46 µM.

As for `CCC(=O)O[C@]1([C@@H](C)C[C@H]2[C@H]3C[C@@H](F)\C4=C\C(=O)\C=C/[C@@]4(C)[C@@]3(F)[C@@H](O)C[C@]12C)C(=O)SCF` [Fluticasone propionate], the “IC50 of cell viability” value is > 46 µM.

In the case of `CC(C)Oc1cccc(NC(=O)c2ccccc2C(F)(F)F)c1` [Flutolanil], the “IC50 of cell viability” value is > 46 µM.

In the case of `C[N+]1(CCF)[C@@H]2CC[C@@H]1CC(OC(=O)C(O)(c1ccccc1)c1ccccc1)C2` (stereo partly drawn) [Flutropium], the “IC50 of cell viability” value is > 46 µM.

With `CC(C)n1c(/C=C/[C@H](O)C[C@H](O)CC(=O)[O-])c(-c2ccc(F)cc2)c2ccccc21` [Fluvastatina], the “IC50 of cell viability” value is > 46 µM.

Turning to `Nc1nc(O)c2nc(CNc3ccc(C(=O)N[C@@H](CCC(=O)O)C(=O)O)cc3)cnc2n1` [Folic acid], the “IC50 of cell viability” value was > 46 µM.

As for `CN(CC(=O)[NH+]1CCOCC1)Cc1c(Cl)cccc1NC(=O)c1ccccc1` [Fominoben hydrochloride], the “IC50 of cell viability” value is > 46 µM.

As for `CC(Cc1ccccc1)NC=O` (stereo not drawn) [Formetorex], the “IC50 of cell viability” value is > 46 µM.

For `COc1ccc(C[C@H](C)NC[C@@H](O)c2ccc(O)c(NC=O)c2)cc1` [Formoterol hemifumarate], the “IC50 of cell viability” value was > 46 µM.

`NNC(=O)CP(=O)(c1ccccc1)c1ccccc1` [Fosenazida]: the “IC50 of cell viability” value is > 46 µM.

`O=P(O)(O)OC(Cn1cncn1)(Cn1cncn1)c1ccc(F)cc1F` [Fosfluconazole]: the “IC50 of cell viability” value was > 46 µM.

Consider `C1CN(P2(N3CC3)=NP(N3CC3)(N3CC3)=NP(N3CC3)(N3CC3)=N2)CCO1` (stereo not drawn) [Fotretamine], for which the “IC50 of cell viability” value was > 46 µM.

Consider `COc1ccc2nc(NC(=O)Nc3ccccc3)sc2c1` [Frentizole], for which the “IC50 of cell viability” value was > 46 µM.

`CN[C@@H]1CCc2[nH]c3ccc(C(N)=O)cc3c2C1.O.O=C(O)CCC(=O)O` [Frovatriptan Succinate Monohydrate]: the “IC50 of cell viability” value is > 46 µM.

`Cc1cccc(C)c1NC(=O)c1ccccc1C(=O)O` [Ftaxilida]: the “IC50 of cell viability” value was > 46 µM.

With `CN1CCN(CCC(=O)N2c3ccccc3Sc3ccc(C(F)(F)F)cc32)CC1` [Ftormetazine], the “IC50 of cell viability” value was > 46 µM.

With `O=C(CCN1CCN(CCO)CC1)N1c2ccccc2Sc2ccc(C(F)(F)F)cc21` [Ftorpropazine], the “IC50 of cell viability” value was > 46 µM.

Turning to `C[C@]12CC[C@@H]3c4ccc(O)cc4C[C@@H](CCCCCCCCC[S+]([O-])CCCC(F)(F)C(F)(F)F)C3[C@@H]1CC[C@@H]2O` (stereo partly drawn) [Fulvestrant], the “IC50 of cell viability” value was > 46 µM.

As to `CCCCCC(O)C1C(=O)OC(C)C(O)C=CC=CC=CC=CC=C(C)C(O)C(O)C(O)CC(O)CC(O)CC(O)CC(O)CC1O` (stereo not drawn) [Fungichromin], the “IC50 of cell viability” value was > 46 µM.

For `O=C1O[C@H](CN2CCOCC2)CN1/N=C\c1ccc([N+](=O)[O-])o1` [Furaltadone hydrochloride], the “IC50 of cell viability” value was > 46 µM.

Consider `O=C1OCCN1/N=C/c1ccc([N+](=O)[O-])o1` [Furazolidone], for which the “IC50 of cell viability” value is > 46 µM.

For `O=Cc1ccco1` [Furfural], the “IC50 of cell viability” value was > 46 µM.

`N[S+](=O)([O-])c1cc(C(=O)O)c(NCc2ccco2)cc1Cl` [Furosemide]: the “IC50 of cell viability” value was > 46 µM.

Turning to `C/C(=C(\CCO)SSCC1CCCO1)N(C=O)Cc1cnc(C)nc1N` (stereo not drawn) [Fursultiamine], the “IC50 of cell viability” value was > 46 µM.

Take `CCCCc1ccc(C(=O)O)nc1` [Fusaric acid]: the “IC50 of cell viability” value is > 46 µM.

In the case of `CC(=O)O[C@@H]1C[C@]2(C)[C@H](C[C@@H](O)[C@H]3[C@@]4(C)CC[C@@H](O)[C@@H](C)[C@@H]4CC[C@@]32C)/C1=C(\CCC=C(C)C)C(=O)[O-].[Na+]` [Fusidic acid sodium salt], the “IC50 of cell viability” value was > 46 µM.

As to `NCCCC(=O)O` [GABA], the “IC50 of cell viability” value was > 46 µM.

As to `COC1=CC=C2CN(C)CC[C@@]34\C=C/[C@H](O)C[C@@H]3OC1=C24` [GALANTHAMINE], the “IC50 of cell viability” value was > 46 µM.

Take `CC[N+](CC)(CC)CCOc1cccc(OCC[N+](CC)(CC)CC)c1OCC[N+](CC)(CC)CC` [GALLAMINE]: the “IC50 of cell viability” value is > 46 µM.

For `COc1cc(/C=C/C(=O)O[C@H]2CC[C@]34C[C@]35CC[C@]3(C)[C@@H]([C@H](C)CCC=C(C)C)CC[C@@]3(C)C5CCC4C2(C)C)ccc1O` (stereo partly drawn) [GAMMA ORYZANOL], the “IC50 of cell viability” value was > 46 µM.

Take `CC(=O)[C@H]1CC[C@H]2[C@@H]3CC[C@H]4C[C@](C)(O)CC[C@]4(C)[C@H]3CC[C@]12C` [GANAXOLONUM]: the “IC50 of cell viability” value is > 46 µM.

With `COC1=C(N2CCNC(C)C2)C(=CC3=C1N(\C=C(C(O)=O)/C3=O)C4CC4)F` (stereo not drawn) [GATIFLOXACIN], the “IC50 of cell viability” value was > 46 µM.

For the compound `NC/1=N/C(=O)N(/C=C1)[C@@H]2O[C@H](CO)[C@@H](O)C2(F)F` [GEMCITABINE HYDROCHLORIDE], the “IC50 of cell viability” value is > 46 µM.

In the case of `CO/N=C1\CN(c2nc3c(cc2F)c(=O)c(C(=O)O)cn3C2CC2)CC1CN.C[S+](=O)([O-])O` (stereo not drawn) [GEMIFLOXACIN MESYLATE], the “IC50 of cell viability” value was > 46 µM.
